Laboratory results from patent publication US20240301023A1 (priority 2020, published 2024).
Like-named read-outs stand apart in the source and are kept apart here. Square brackets hold non-standard residues; d marks the D form. Ends that are not written are not given here. Peptide text beside a SMILES is read from it. Phe(4-NO2) = N[C@@H](Cc1ccc([N+](=O)[O-])cc1)C(=O)O; Phe(4-Cl) = N[C@@H](Cc1ccc(Cl)cc1)C(=O)O; Phe(4-F) = N[C@@H](Cc1ccc(F)cc1)C(=O)O; NMeR = CN[C@@H](CCCNC(=N)N)C(=O)O; Aoc = NCCCCCCCC(=O)O; Sar = CNCC(=O)O

Experiments:
[1] = biological target: T1, bovine pancreatic trypsin (Bos taurus, UniProt P00760); experiment: Stability in bovine trypsin; format: in vitro ADME; settings: bovine pancreatic trypsin 2.5 μg/mL, NH4HCO3 buffer pH 8-8.5, 37° C., 100 μM peptide; for half-life at 100 µM: bovine pancreatic trypsin solution; for half-life: isolated enzyme trypsin
T1 construct: from tissue; host or cells: bovine pancreas
T1 sequence (P00760 24-246): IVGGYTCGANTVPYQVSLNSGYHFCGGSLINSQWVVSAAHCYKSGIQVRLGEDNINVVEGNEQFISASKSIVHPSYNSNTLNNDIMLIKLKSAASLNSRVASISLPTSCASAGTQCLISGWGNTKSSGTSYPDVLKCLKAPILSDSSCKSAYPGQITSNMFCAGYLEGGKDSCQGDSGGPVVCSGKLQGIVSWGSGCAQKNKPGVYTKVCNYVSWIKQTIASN
Procedure: The stability of the peptides was analysed in typsin, plasma and water. Stability of linear peptides is generally low due to rapid degradation by endogenous peptidases and proteases. While stability in bodily fluids is important, absolute stability may not be prudent or desirable due to potential build-up in vivo leading to adverse side effects, and/or hazards to the environment and recirculation of exceptionally stable compounds in waterways. Thus, compounds that are extremely stable in either plasma or typsin are not generally considered “drug-like”.
Stability in bovine trypsin was analysed for SEQ ID Nos. 2 to 7 and 11 to 17. Peptides were added to trypsin solution (bovine pancreatic trypsin 2.5 μg/mL in NH4HCO3 buffer, pH approximately 8-8.5, 37° C.) in a water bath with final concentrations of 100 μM peptide. A 50 μL sample was taken immediately and precipitated in 150 μL of cold acetonitrile (9:1 acetonitrile:water) This sample became the baseline, or t=0 min sample. The trypsin peptide mixture was immediately returned to the water bath and subsequent 50 μL samples were taken at 5, 10, 15, 30, 60 and 120 min. At each time point, the 50 μL sample was collected and immediately added to cold acetonitrile (ACN). Each sample was vortexed for 30 sec and then centrifuged at room temperature (RT) (13K rpm, 5 min). 150 μL of the supernatant was taken and directly place in a glass HPLC vial for LCMS analysis.

[2] = biological target: Mu opioid receptor (MOR) (Homo sapiens, UniProt P35372); experiment: cell-based; format: cell-based
Mu opioid receptor (MOR), sequence (P35372 whole entry): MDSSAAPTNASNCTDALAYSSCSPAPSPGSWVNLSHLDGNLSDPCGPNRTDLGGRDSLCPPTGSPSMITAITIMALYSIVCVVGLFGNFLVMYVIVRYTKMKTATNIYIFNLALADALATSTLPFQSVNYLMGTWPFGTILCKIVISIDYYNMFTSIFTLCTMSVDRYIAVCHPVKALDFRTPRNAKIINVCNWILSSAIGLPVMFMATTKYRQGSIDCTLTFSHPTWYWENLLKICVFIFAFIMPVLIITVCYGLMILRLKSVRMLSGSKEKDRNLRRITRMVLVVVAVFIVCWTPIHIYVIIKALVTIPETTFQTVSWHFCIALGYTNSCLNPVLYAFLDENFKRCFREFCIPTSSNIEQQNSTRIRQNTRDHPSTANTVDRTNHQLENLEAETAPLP

[3] = Stability in rat plasma; format: in vitro ADME; settings: 37° C., 100 μM peptide; for half-life at 100 µM: both sexes, Wistar
Procedure: Stability in plasma was assessed in rat plasma. Plasma was collected in-house from adult mixed-gender Wistar rats, prepared using 2% EDTA as per standard practice. Peptides were added to the rat plasma samples at 37° C. in a water bath with final concentrations of 100 μM (1:9 peptide in water:plasma). The assay was then carried out in the same manner as the assay in bovine trypsin.

[4] = biological target: Delta opioid receptor (DOR) (Homo sapiens, UniProt P41143); experiment: cell-based; format: cell-based
Delta opioid receptor (DOR), sequence (P41143 whole entry): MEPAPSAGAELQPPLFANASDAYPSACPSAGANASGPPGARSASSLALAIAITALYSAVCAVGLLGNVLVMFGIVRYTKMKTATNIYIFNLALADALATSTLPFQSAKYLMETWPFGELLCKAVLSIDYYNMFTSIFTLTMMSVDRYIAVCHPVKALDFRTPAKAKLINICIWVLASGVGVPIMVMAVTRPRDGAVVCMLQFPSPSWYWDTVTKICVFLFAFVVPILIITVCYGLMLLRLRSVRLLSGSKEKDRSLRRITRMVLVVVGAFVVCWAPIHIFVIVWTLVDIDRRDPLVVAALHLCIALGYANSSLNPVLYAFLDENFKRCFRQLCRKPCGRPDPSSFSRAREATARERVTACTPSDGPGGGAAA

[5] = biological target: Kappa opioid receptor (KOR) (Homo sapiens, UniProt P41145); experiment: cell-based; format: cell-based; settings: for EC50: read-out: Activity (EC50, nM) KOR
Kappa opioid receptor (KOR), sequence (P41145 whole entry): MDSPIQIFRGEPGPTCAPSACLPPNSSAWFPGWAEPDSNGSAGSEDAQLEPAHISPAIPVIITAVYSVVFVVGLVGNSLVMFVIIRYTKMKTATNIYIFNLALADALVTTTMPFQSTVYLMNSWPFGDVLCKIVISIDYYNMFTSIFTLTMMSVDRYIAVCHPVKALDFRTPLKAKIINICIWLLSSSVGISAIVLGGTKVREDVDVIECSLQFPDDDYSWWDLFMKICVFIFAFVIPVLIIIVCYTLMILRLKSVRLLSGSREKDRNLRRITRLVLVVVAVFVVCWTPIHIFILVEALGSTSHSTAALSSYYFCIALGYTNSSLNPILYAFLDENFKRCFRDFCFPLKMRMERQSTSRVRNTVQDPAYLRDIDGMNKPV

[6] = biological target: KOR (Homo sapiens, UniProt P41145); experiment: cell-based; format: cell-based
KOR, sequence (P41145 whole entry): as above

[7] = biological target: KOPr (Homo sapiens, UniProt P41145); format: cell-based
KOPr, sequence (P41145 whole entry): as above

[8] = read-out: Activity (EC50, nM) MOR
[9] = read-out: Activity (EC50, nM) DOR

Row | Molecule | half-life at 100 µM [1] | half-life at 100 µM [3] | cAMP assay MOR 1 μM [2] | cAMP assay MOR 10 μM [2] | cAMP assay KOR 1 μM [5] | cAMP assay KOR 10 μM [5] | cAMP assay DOR 1 μM [4] | cAMP assay DOR 10 μM [4] | other results
1 | CC(C)C[C@H](NC(=O)[C@H](Cc1ccc(F)cc1)NC(=O)CN(C)C(=O)[C@@H](N)Cc1ccc(O)cc1)C(=O)N(C)[C@@H](CCCNC(=N)N)C(=O)N[C@H](CCCNC(=N)N)C(N)=O [SEQ ID NO. 14, NH2-Tyr-Sar-(4-F)Phe-Leu-NMA-DArg-NH2] (H-Y[Sar][Phe(4-F)]L[NMeR][dR]-NH2) | 27.1 h | 5.4 h | – | – | – | – | – | – | EC50 [2, 8]: 4000 nM; EC50 [4, 9]: 1660 nM
2 | CC(C)C[C@H](NC(=O)[C@H](Cc1ccc([N+](=O)[O-])cc1)NC(=O)CN(C)C(=O)[C@@H](N)Cc1ccc(O)cc1)C(=O)N[C@H](CCCNC(=N)N)C(=O)N[C@@H](CCCNC(=N)N)C(N)=O [SEQ ID NO. 5, NH2-Tyr-Sar-(4-NO2)Phe-Leu-DArg-Arg-NH2] (H-Y[Sar][Phe(4-NO2)]L[dR]R-NH2) | – | – | −0.05 | 4.32 | 33.44 | 43.14 | 0.05 | 2.02 | Half Life Trypsin [1]: 54.167 h; half-life [3]: 0.478 h
3 | CC[C@H](C)[C@H](NC(=O)[C@@H](CCCNC(=N)N)NC(=O)[C@H](CCCNC(=N)N)NC(=O)[C@H](CC(C)C)NC(=O)[C@H](Cc1ccc(Cl)cc1)NC(=O)CN(C)C(=O)[C@@H](N)Cc1ccc(O)cc1)C(=O)N[C@@H](CCCNC(=N)N)C(N)=O [SEQ ID NO. 20, NH2-Tyr-Sar-(4-Cl)Phe-Leu-Arg-DArg-Ile-Arg-NH2] | – | – | – | – | – | – | – | – | EC50 [2]: > 10000 nM; reduction in maximal response after pre-treatment ([6]; read-out: reduction in maximal response): ~50%; cAMP activity in the presence of naloxone, KOR cells [5]: significantly inhibited; EC50 [4]: 3580 nM
4 | CC(C)C[C@H](NC(=O)[C@H](Cc1ccc([N+](=O)[O-])cc1)NC(=O)CN(C)C(=O)[C@@H](N)Cc1ccc(O)cc1)C(=O)N[C@@H](CCCNC(=N)N)C(=O)N(C)[C@@H](CCCNC(=N)N)C(N)=O [SEQ ID NO. 18, NH2-Tyr-Sar-(4-NO2)Phe-Leu-Arg-NMA-NH2] (H-Y[Sar][Phe(4-NO2)]LR[NMeR]-NH2) | – | – | – | – | – | – | – | – | bias factor (β) relative to U50488H [7]: bias towards cAMP; pERK1/2 activity [7]: failed to show any pERK activity; KOR desensitisation (change of cAMP maximal response after pre-treatment) [6]: no sign of desensitisation; EC50 [5]: 1.77 nM
5 | CC(C)C[C@H](NC(=O)[C@H](Cc1ccc(Cl)cc1)NC(=O)CN(C)C(=O)[C@@H](N)Cc1ccc(O)cc1)C(=O)N(C)[C@@H](CCCNC(=N)N)C(=O)N[C@H](CCCNC(=N)N)C(N)=O [SEQ ID NO. 13, NH2-Tyr-Sar-(4-Cl)Phe-Leu-NMA-DArg-NH2] (H-Y[Sar][Phe(4-Cl)]L[NMeR][dR]-NH2) | 4.6 h | 3.99 h | – | – | – | – | – | – | EC50 [2]: > 10000 nM; EC50 [4]: > 10000 nM
6 | CC(C)C[C@H](NC(=O)[C@H](Cc1ccc(Cl)cc1)NC(=O)CN(C)C(=O)[C@@H](N)Cc1ccc(O)cc1)C(=O)N[C@@H](CCCCN)C(=O)N[C@H](CCCNC(=N)N)C(N)=O [SEQ ID NO. 16, NH2-Tyr-Sar-(4-Cl)Phe-Leu-Lys-DArg-NH2] (H-Y[Sar][Phe(4-Cl)]LK[dR]-NH2) | – | 1.17 h | – | – | – | – | – | – | Half Life Trypsin [1]: 1.16 h
7 | CC(C)C[C@H](NC(=O)[C@H](Cc1ccc(Cl)cc1)NC(=O)CN(C)C(=O)[C@@H](N)Cc1ccc(O)cc1)C(=O)N[C@@H](CCCNC(=N)N)C(=O)N[C@H](CCCNC(=N)N)C(=O)NCCCCCCCC(=O)O [SEQ ID NO. 28, NH2-Tyr-Sar-(4-Cl)Phe-Leu-Arg-DArg-C7H14-COOH] (H-Y[Sar][Phe(4-Cl)]LR[dR][Aoc]-OH) | – | – | – | – | – | – | – | – | EC50 [2]: > 10000 nM; EC50 [4]: > 10000 nM
8 | CC(C)C[C@H](NC(=O)[C@H](Cc1ccccc1)NC(=O)CN(C)C(=O)[C@@H](N)Cc1ccc(O)cc1)C(=O)N[C@H](CCCNC(=N)N)C(=O)N[C@H](CCCNC(=N)N)C(N)=O [SEQ ID NO. 7, NH2-Tyr-Sar-Phe-Leu-DArg-DArg-NH2] (H-Y[Sar]FL[dR][dR]-NH2) | – | – | 0.13 | 4.19 | 18.27 | 36.03 | −0.68 | 2.53 | half-life [1]: 9.78 h
9 | CC(C)C[C@H](NC(=O)[C@H](Cc1ccc([N+](=O)[O-])cc1)NC(=O)CN(C)C(=O)[C@@H](N)Cc1ccc(O)cc1)C(=O)N(C)[C@@H](CCCNC(=N)N)C(=O)N[C@H](CCCNC(=N)N)C(N)=O [SEQ ID NO. 15, NH2-Tyr-Sar-(4-NO2)Phe-Leu-NMA-DArg-NH2] (H-Y[Sar][Phe(4-NO2)]L[NMeR][dR]-NH2) | – | – | – | – | – | – | – | – | EC50 [4, 9]: 1320 nM
10 | CC(C)C[C@H](NC(=O)[C@H](Cc1ccc(Cl)cc1)NC(=O)CN(C)C(=O)[C@@H](N)Cc1ccc(O)cc1)C(=O)N[C@@H](CCCNC(=N)N)C(=O)N(C)[C@@H](CCCNC(=N)N)C(N)=O [SEQ ID NO. 17, NH2-Tyr-Sar-(4-Cl)Phe-Leu-Arg-NMA-NH2] (H-Y[Sar][Phe(4-Cl)]LR[NMeR]-NH2) | > 16.7 h | 2.9 h | – | – | – | – | – | – | –
11 | CC[C@H](C)[C@H](NC(=O)[C@@H](CCCNC(=N)N)NC(=O)[C@H](CCCNC(=N)N)NC(=O)[C@H](CC(C)C)NC(=O)[C@H](Cc1ccc(Cl)cc1)NC(=O)CN(C)C(=O)[C@@H](N)Cc1ccc(O)cc1)C(=O)N[C@H](CCCNC(=N)N)C(N)=O [SEQ ID NO. 25, NH2-Tyr-Sar-(4-Cl)Phe-Leu-Arg-DArg-Ile-DArg-NH2] | – | – | – | – | – | – | – | – | EC50 [2]: 1610 nM; EC50 [4]: > 10000 nM
12 | CC(C)C[C@H](NC(=O)[C@H](Cc1ccc(F)cc1)NC(=O)CN(C)C(=O)[C@@H](N)Cc1ccc(O)cc1)C(=O)N[C@@H](CCCNC(=N)N)C(=O)N[C@H](CCCNC(=N)N)C(N)=O [SEQ ID NO. 12, NH2-Tyr-Sar-(4-F)Phe-Leu-Arg-DArg-NH2] (H-Y[Sar][Phe(4-F)]LR[dR]-NH2) | 0.228 h | 0.532 h | – | – | – | – | – | – | EC50 [2, 8]: 3450 nM; EC50 [5]: 6.7 nM
13 | 2-NH2-Phe-Phe-Leu-Gly-Arg-Arg (FFLGRR; also: 2-NH2 (N-terminal amino modification) on Phe, placement unclear) [SEQ ID NO. 36, reference compound] | – | – | no measurable potency | – | no measurable potency | – | no measurable potency | – | –
14 | CC(C)C[C@H](NC(=O)[C@H](Cc1ccccc1)NC(=O)CN(C)C(=O)[C@@H](N)Cc1ccc(O)cc1)C(=O)N[C@@H](CCCNC(=N)N)C(=O)N[C@H](CCCNC(=N)N)C(N)=O [SEQ ID NO. 3, NH2-Tyr-Sar-Phe-Leu-Arg-DArg-NH2] (H-Y[Sar]FLR[dR]-NH2) | – | 1.2 h | −0.68 | 2.17 | 27.24 | 43.58 | −2.27 | 2.24 | Half Life Trypsin [1]: 0.227 h
15 | CC(C)C[C@H](NC(=O)[C@H](Cc1ccc(Cl)cc1)NC(=O)CN(C)C(=O)[C@@H](N)Cc1ccc(O)cc1)C(=O)N[C@@H](CCCNC(=N)N)C(=O)N[C@H](CCCNC(=N)N)C(N)=O [SEQ ID NO. 11, NH2-Tyr-Sar-(4-Cl)Phe-Leu-Arg-DArg-NH2] (H-Y[Sar][Phe(4-Cl)]LR[dR]-NH2) | 0.257 h | – | −0.86 | 1.37 | 27.7 | 33.99 | −1.18 | 4.27 | –
16 | CC(C)C[C@H](NC(=O)[C@H](Cc1ccccc1)NC(=O)CN(C)C(=O)[C@@H](N)Cc1ccc(O)cc1)C(=O)N[C@H](CCCNC(=N)N)C(=O)N[C@@H](CCCNC(=N)N)C(N)=O [SEQ ID NO. 6, NH2-Tyr-Sar-Phe-Leu-DArg-Arg-NH2] (H-Y[Sar]FL[dR]R-NH2) | – | – | 1.04 | 7.84 | 14.22 | 35.13 | −0.03 | 2.25 | half-life [1]: 21.1 h
